A value given as a limit tells only on which side of the number the result lay.

One assay deals with Human Factor D (Homo sapiens (Human), UniProt P00746). The experiment in a line: Human Factor D assay (Z-L-Lys-SBzl / DTNB, absorbance at 405 nm). The format is biochemical. Conditions: Table 3; Human Factor D 80 nM, assay of Example 13. Put shortly: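 Human serum-purified Factor D (80 nM final) was preincubated with compound for 5 min at room temperature in 50 mM Tris, 1M NaCl, pH 7.5. IC50 came from nonlinear regression of rate versus compound concentration.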
Chain of Human Factor D (P00746 26-253): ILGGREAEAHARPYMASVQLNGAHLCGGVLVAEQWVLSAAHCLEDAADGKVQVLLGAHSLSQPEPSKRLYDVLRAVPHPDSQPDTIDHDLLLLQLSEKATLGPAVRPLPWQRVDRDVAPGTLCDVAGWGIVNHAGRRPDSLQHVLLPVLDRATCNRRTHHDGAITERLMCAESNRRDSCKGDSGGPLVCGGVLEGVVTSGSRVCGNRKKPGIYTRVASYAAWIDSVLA
For the compound `NC(=O)c1nn(CC(=O)N2C[C@H](F)C[C@H]2C(=O)Nc2cccc(-c3ccc4nc(F)[nH]c4c3Cl)c2F)c2ccccc12` [Compound 44, 1-(2-((2S,4R)-2-(3-(7-chloro-2-fluoro-1H-benzo[d]imidazol-6-yl)-2-fluorophenyl-carbamoyl)-4-fluoropyrrolidin-1-yl)-2-oxoethyl)-1H-indazole-3-carboxamide], the IC50 is less than 1 µM.

`NC(=O)c1nn(CC(=O)N2C[C@H](F)C[C@H]2C(=O)Nc2cccc(-c3ccc4[nH]cnc4c3)c2F)c2ccccc12` [Compound 6, 1-(2-((2S,4R)-2-(3-(1H-benzo[d]imidazol-5-yl)-2-fluorophenyl-carbamoyl)-4-fluoropyrrolidin-1-yl)-2-oxoethyl)-1H-indazole-3-carboxamide] showed an IC50 of less than 1 µM.

`CC(=O)c1cn(CC(=O)N2C[C@H](F)C[C@H]2C(=O)Nc2cccc(-c3ccc4[nH]cnc4c3Cl)c2F)c2ccccc12` [Compound 2, (2S,4R)-1-(2-(3-acetyl-1H-indol-1-yl)acetyl)-N-(3-(4-chloro-1H-benzo[d]imidazol-5-yl)-2-fluorophenyl)-4-fluoropyrrolidine-2-carboxamide] yielded an IC50 of less than 1 µM.

As to `CC(C)(C)OC(=O)NCC(=O)c1ccc(Cl)c(-c2cccc(NC(=O)[C@@H]3C[C@@H](F)CN3C(=O)Cn3nc(C(N)=O)c4ccccc43)c2F)c1` [Compound 51, tert-butyl 2-(3′-((2S,4R)-1-(2-(3-carbamoyl-1H-indazol-1-yl)acetyl)-4-fluoropyrrolidine-2-carboxamido)-6-chloro-2′-fluorobiphenyl-3-yl)-2-oxoethylcarbamate], the IC50 is less than 1 µM.

Compound `COc1cc(Br)cc(CC(=O)N2C[C@H](F)C[C@H]2C(=O)Nc2cccc(-c3ccccc3Cl)c2F)c1` [Compound 48, (2S,4R)-1-(2-(3-bromo-5-methoxyphenyl)acetyl)-N-(2′-chloro-2-fluorobiphenyl-3-yl)-4-fluoropyrrolidine-2-carboxamide] returned an IC50 of less than 1 µM.

Compound `N#Cc1n[nH]c2ccc(-c3cccc(NC(=O)[C@@H]4C[C@@H](F)CN4C(=O)Cn4nc(C(N)=O)c5ccccc54)c3F)cc12` [Compound 13, 1-(2-((2S,4R)-2-(3-(3-cyano-1H-indazol-5-yl)-2-fluorophenyl-carbamoyl)-4-fluoropyrrolidin-1-yl)-2-oxoethyl)-1H-indazole-3-carboxamide] returned a 50% inhibitory concentration (IC50) of less than 1 µM.

For the compound `NC(=O)c1nn(CC(=O)N2C[C@H](F)C[C@H]2C(=O)Nc2cccc(-c3ccc4c(c3Cl)NC(=O)CN4)c2F)c2ccccc12` [Compound 59, 1-(2-((2S,4R)-2-((3-(5-Chloro-3-oxo-1,2,3,4-tetrahydroquinoxalin-6-yl)-2-fluorophenyl)carbamoyl)-4-fluoropyrrolidin-1-yl)-2-oxoethyl)-1H-indazole-3-carboxamide], the IC50 is less than 1 µM.

Regarding `CC(=O)c1cn(CC(=O)N(C)[C@H](C(=O)Nc2cccc(-c3ccccc3Cl)c2F)[C@@H](C)O)c2ccccc12` [Compound 15, (2S,3R)-2-(2-(3-acetyl-1H-indol-1-yl)-N-methylacetamido)-N-(2′-chloro-2-fluorobiphenyl-3-yl)-3-hydroxybutanamide], the 50% inhibitory concentration (IC50) lay within 1 to 10 µM.

Take `N#Cc1n[nH]c2cc(-c3cccc(NC(=O)[C@@H]4C[C@@H](F)CN4C(=O)Cn4nc(C(N)=O)c5ccccc54)c3F)ccc12` [Compound 32, 1-(2-((2S,4R)-2-(3-(3-cyano-1H-indazol-6-yl)-2-fluorophenyl-carbamoyl)-4-fluoropyrrolidin-1-yl)-2-oxoethyl)-1H-indazole-3-carboxamide]: the IC50 is less than 1 µM.

With `NC(=O)c1nn(CC(=O)N2C[C@H](F)C[C@H]2C(=O)Nc2cccc(Br)n2)c2cc(Cn3cc(C4CC4)nn3)sc12` [Compound 29, 1-(2-((2S,4R)-2-(6-bromopyridin-2-ylcarbamoyl)-4-fluoropyrrolidin-1-yl)-2-oxoethyl)-5-((4-cyclopropyl-1H-1,2,3-triazol-1-yl)methyl)-1H-thieno[3,2-c]pyrazole-3-carboxamide], the IC50 is less than 1 µM.

Still in this assay, the particulars now being: Table 4; Human Factor D 80 nM, assay of Example 13.
With `CC(=O)c1nn(CC(=O)N2C[C@H](F)C[C@H]2C(=O)Nc2cccc(-c3ccc4sc(N)nc4c3)c2F)c2ccccc12` [Compound 100, (2S,4R)-1-(2-(3-acetyl-1H-indazol-1-yl)acetyl)-N-(3-(2-aminobenzo[d]thiazol-5-yl)-2-fluorophenyl)-4-fluoropyrrolidine-2-carboxamide], the half-maximal inhibitory concentration (IC50) was less than 1 µM.

Take `COC(=O)c1cc(-c2cccc(NC(=O)[C@@H]3C[C@@H](F)CN3C(=O)Cn3nc(C(N)=O)c4ccccc43)c2F)cc2[nH]c(N)nc12` [Compound 76, methyl 2-amino-6-(3-((2S,4R)-1-(2-(3-carbamoyl-1H-indazol-1-yl)acetyl)-4-fluoropyrrolidine-2-carboxamido)-2-fluorophenyl)-1H-benzo[d]imidazole-4-carboxylate]: the IC50 was less than 1 µM.

For `NC(=O)c1nn(CC(=O)N2C[C@H](F)C[C@H]2C(=O)Nc2cccc(-c3ccc4oc(=O)[nH]c4c3)c2F)c2ccccc12` [Compound 92, 1-(2-((2S,4R)-4-fluoro-2-((2-fluoro-3-(2-oxo-2,3-dihydrobenzo[d]oxazol-5-yl)phenyl)carbamoyl)pyrrolidin-1-yl)-2-oxoethyl)-1H-indazole-3-carboxamide], the IC50 is less than 1 µM.

Take `CC(=O)c1nn(CC(=O)N2C[C@H](F)C[C@H]2C(=O)Nc2cccc(-c3cc(C(=O)O)c4nc[nH]c4c3)c2F)c2ccccc12` [Compound 80, 6-(3-((2S,4R)-1-(2-(3-acetyl-1H-indazol-1-yl)acetyl)-4-fluoropyrrolidine-2-carboxamido)-2-fluorophenyl)-1H-benzo[d]imidazole-4-carboxylic acid]: the half-maximal inhibitory concentration (IC50) is less than 1 µM.

Compound `CC(=O)c1nn(CC(=O)N2[C@@H]3C[C@@H]3C[C@H]2C(=O)Nc2cccc(-c3cc(Cl)c4[nH]ccc4c3)c2F)c2ccccc12` [Compound 86, (1R,3S,5R)-2-(2-(3-acetyl-1H-indazol-1-yl)acetyl)-N-(3-(7-chloro-1H-indol-5-yl)-2-fluorophenyl)-2-azabicyclo[3.1.0]hexane-3-carboxamide] had a 50% inhibitory concentration (IC50) greater than 10 µM.

In the case of `NC(=O)c1cc(O)cc(CC(=O)N2C[C@H](F)C[C@H]2C(=O)Nc2cccc(-c3ccccc3Cl)c2F)c1` [Compound 78, (2S,4R)-1-(2-(3-carbamoyl-5-hydroxyphenyl)acetyl)-N-(2′-chloro-2-fluoro-[1,1′-biphenyl]-3-yl)-4-fluoropyrrolidine-2-carboxamide], the IC50 was less than 1 µM.

Broadly, the IC50 is the midpoint of a concentration-inhibition curve. A lower IC50 goes with greater potency in that assay.

The values above are taken from patent US10807952B2 (Achillion Pharmaceuticals, Inc., priority 2015, dated 2020).
